Experimental data from US20230265151A1, “GIP/GLP1 CO-AGONIST COMPOUNDS” (priority 2020, published 2023).
Where two headings read alike, the source gives them in different places. *1 amine or outer side, *2 acyl side, *3 side chain or, on linkers, in order; H or OH if unused. Where a SMILES comes first, the peptide text is derived from it. Side-chain parts run from the residue outwards. [ ]: non-standard residue; d: D form. The star is where a group is joined. αMePhe(2-F) = C[C@](N)(Cc1ccccc1F)C(=O)O; γGlu = O=C(O)[C@H](CCC(=O)[*:2])N[*:1]; C14 diacid = O=C(O)CCCCCCCCCCCCC(=O)*; αMeY = C[C@](N)(Cc1ccc(O)cc1)C(=O)O; αMeF = C[C@](N)(Cc1ccccc1)C(=O)O; αMeL = CC(C)C[C@](C)(N)C(=O)O; Orn = NCCC[C@H](N)C(=O)O; AEEA = NCCOCCOCC(=O)O; Aib = CC(C)(N)C(=O)O

Columns and labels:
Assay type in all cases: cell-based
hGCGR = molecular target: T1, hGCGR (Homo sapiens, UniProt P47871); experiment: Functional cAMP formation (HTRF) in HEK-293 clonal cells expressing hGCGR, 0.1% bovine casein, without or with 1.0% human serum albumin; settings: cAMP, incubated at 37° C., 0.1% bovine casein (no human serum albumin), geometric mean
T1 construct: expressed in transfected cells
In short: (§1)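 Cells were stimulated with peptide for 30 min at 37° C, then intracellular cAMP was measured by competitive HTRF (665/620 nm ratio) and converted to nM using a cAMP standard curve. Relative EC50 and Emax came from four-parameter logistic fits of percent maximal response against peptide concentration.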

hGLP-1R = hGLP-1R (Homo sapiens, UniProt P43220); experiment: Functional cAMP formation (HTRF) in HEK-293 clonal cells expressing hGLP-1R, 0.1% bovine casein, without or with 1.0% human serum albumin; parameters: expressed in transfected cells; settings: for Emax: 37° C., 0.1% bovine casein, arithmetic mean; for EC50: hGLP-1R EC50, nM (SEM, n), cAMP, incubated at 37° C., 0.1% bovine casein (no human serum albumin), geometric mean
In short: as §1

hGIPR = molecular target: T2, hGIPR (Homo sapiens, UniProt P48546); experiment: Functional cAMP formation (HTRF) in HEK-293 clonal cells expressing hGIPR, 0.1% bovine casein, without or with 1.0% human serum albumin; settings: for Emax: 37° C., 0.1% bovine casein, arithmetic mean; for EC50: cAMP, incubated at 37° C., 0.1% bovine casein (no human serum albumin), geometric mean
T2 construct: expressed in transfected cells
T2 sequence (P48546 22-466): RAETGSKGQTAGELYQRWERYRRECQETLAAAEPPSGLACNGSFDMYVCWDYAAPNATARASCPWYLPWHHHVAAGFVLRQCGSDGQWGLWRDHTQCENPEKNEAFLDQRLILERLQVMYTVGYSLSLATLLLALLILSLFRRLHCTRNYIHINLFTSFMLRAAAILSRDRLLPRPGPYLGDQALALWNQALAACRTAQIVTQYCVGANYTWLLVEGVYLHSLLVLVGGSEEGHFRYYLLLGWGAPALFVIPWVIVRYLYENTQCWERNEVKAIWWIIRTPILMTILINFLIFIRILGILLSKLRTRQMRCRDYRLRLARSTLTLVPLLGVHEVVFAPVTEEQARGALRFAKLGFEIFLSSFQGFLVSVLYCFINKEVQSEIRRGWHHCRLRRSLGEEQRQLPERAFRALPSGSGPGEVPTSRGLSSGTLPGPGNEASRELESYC
In short: as §1

[1] = read-out: hGCGR EC50, nM (SEM, n)
[2] = HEK293, percent of maximal response to GLP-1(7-36)NH2, read-out: hGLP-1R Emax, % ± SEM
[3] = HEK293, percent of maximal response to GIP(1-42)NH2, read-out: hGIPR Emax, % ± SEM
[4] = read-out: hGIPR EC50, nM (SEM, n)

hGLP-1R, sequence (P43220 24-463): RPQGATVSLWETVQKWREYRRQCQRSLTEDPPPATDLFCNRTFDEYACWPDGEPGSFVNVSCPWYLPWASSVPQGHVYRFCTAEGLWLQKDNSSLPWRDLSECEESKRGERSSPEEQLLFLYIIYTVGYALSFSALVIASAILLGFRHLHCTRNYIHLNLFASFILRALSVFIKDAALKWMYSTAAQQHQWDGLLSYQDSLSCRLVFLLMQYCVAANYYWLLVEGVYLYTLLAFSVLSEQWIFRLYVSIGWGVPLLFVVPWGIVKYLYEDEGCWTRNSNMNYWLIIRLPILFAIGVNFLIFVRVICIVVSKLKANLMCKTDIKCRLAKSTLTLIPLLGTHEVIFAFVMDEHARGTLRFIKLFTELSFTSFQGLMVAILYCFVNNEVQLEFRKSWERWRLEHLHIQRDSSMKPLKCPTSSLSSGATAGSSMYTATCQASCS
T1 sequence (P47871 26-477): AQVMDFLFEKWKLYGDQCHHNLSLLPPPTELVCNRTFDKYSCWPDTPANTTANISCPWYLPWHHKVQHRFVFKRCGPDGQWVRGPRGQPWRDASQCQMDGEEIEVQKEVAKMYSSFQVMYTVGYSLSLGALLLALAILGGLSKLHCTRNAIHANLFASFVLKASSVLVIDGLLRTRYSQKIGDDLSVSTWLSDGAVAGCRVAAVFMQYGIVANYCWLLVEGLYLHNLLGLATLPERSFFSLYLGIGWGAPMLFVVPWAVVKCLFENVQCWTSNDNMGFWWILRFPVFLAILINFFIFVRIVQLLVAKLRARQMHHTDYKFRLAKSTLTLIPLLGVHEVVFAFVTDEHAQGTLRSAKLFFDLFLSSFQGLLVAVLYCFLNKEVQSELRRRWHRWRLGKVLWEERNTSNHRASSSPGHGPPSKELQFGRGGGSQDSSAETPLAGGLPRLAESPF

`CC[C@H](C)[C@H](NC(=O)[C@H](CCCN)NC(=O)[C@H](CC(=O)O)NC(=O)[C@H](CC(C)C)NC(=O)[C@](C)(CC(C)C)NC(=O)[C@@H](NC(=O)[C@H](CO)NC(=O)[C@H](CCCCNC(=O)COCCOCCNC(=O)COCCOCCNC(=O)CC[C@H](NC(=O)CCCCCCCCCCCCC(=O)O)C(=O)O)NC(=O)[C@H](CC(=O)O)NC(=O)[C@H](CO)NC(=O)[C@@H](NC(=O)[C@](C)(Cc1ccccc1F)NC(=O)[C@@H](NC(=O)CNC(=O)[C@H](CCC(=O)O)NC(=O)C(C)(C)NC(=O)[C@@H](N)Cc1ccc(O)cc1)[C@@H](C)O)[C@@H](C)O)[C@@H](C)CC)C(=O)N[C@@H](C)C(=O)N[C@@H](CCC(N)=O)C(=O)NC(C)(C)C(=O)N[C@@H](CCC(=O)O)C(=O)N[C@@H](Cc1ccccc1)C(=O)N[C@H](C(=O)N[C@H](CCC(=O)O)C(=O)N[C@@](C)(Cc1ccc(O)cc1)C(=O)N[C@@H](CC(C)C)C(=O)N[C@H](C(=O)N[C@@H](CCCCNC(=O)COCCOCCNC(=O)COCCOCCNC(=O)CC[C@H](NC(=O)CCCCCCCCCCCCC(=O)O)C(=O)O)C(=O)NCC(=O)NCC(=O)N1CCC[C@H]1C(=O)N[C@@H](CO)C(=O)N[C@@H](CO)C(=O)NCC(=O)N[C@@H](C)C(=O)N1CCC[C@H]1C(=O)N1CCC[C@H]1C(=O)N1CCC[C@H]1C(=O)N[C@@H](CO)C(N)=O)[C@@H](C)CC)[C@@H](C)CC` [Example 107] (H-Y[Aib]EGT[αMePhe(2-F)]TSDK([AEEA-AEEA-γGlu-C14 diacid])SI[αMeL]LD[Orn]IAQ[Aib]EFI[dE][αMeY]LIK([AEEA-AEEA-γGlu-C14 diacid])GGPSSGAPPPS-NH2) was tested, and the EC50 (hGCGR; [1]) was > 9950 nM, the Emax (hGLP-1R; [2]) was 93.4% and the Emax (hGIPR; [3]) was 94.3%. It also gave an EC50 (hGIPR; [4]) of 0.0473 nM.
`CC[C@H](C)[C@H](NC(=O)[C@H](CCCN)NC(=O)[C@H](CC(=O)O)NC(=O)[C@H](CC(C)C)NC(=O)[C@](C)(CC(C)C)NC(=O)[C@@H](NC(=O)[C@H](CO)NC(=O)[C@H](CCCCNC(=O)COCCOCCNC(=O)COCCOCCNC(=O)CC[C@H](NC(=O)CCCCCCCCCCCCC(=O)O)C(=O)O)NC(=O)[C@H](CC(=O)O)NC(=O)[C@H](CO)NC(=O)[C@@H](NC(=O)[C@](C)(Cc1ccccc1F)NC(=O)[C@@H](NC(=O)CNC(=O)[C@H](CCC(=O)O)NC(=O)C(C)(C)NC(=O)[C@@H](N)Cc1ccc(O)cc1)[C@@H](C)O)[C@@H](C)O)[C@@H](C)CC)C(=O)N[C@@H](C)C(=O)N[C@@H](CCC(N)=O)C(=O)NC(C)(C)C(=O)N[C@@H](CCC(=O)O)C(=O)N[C@@H](Cc1ccccc1)C(=O)N[C@H](C(=O)N[C@H](CCC(=O)O)C(=O)N[C@@](C)(Cc1ccc(O)cc1)C(=O)N[C@@H](CC(C)C)C(=O)N[C@H](C(=O)N[C@@H](CCC(=O)O)C(=O)NCC(=O)NCC(=O)N[C@@H](CCCCNC(=O)COCCOCCNC(=O)COCCOCCNC(=O)CC[C@H](NC(=O)CCCCCCCCCCCCC(=O)O)C(=O)O)C(=O)N[C@@H](CO)C(=O)N[C@@H](CO)C(=O)NCC(=O)N[C@@H](C)C(=O)N1CCC[C@H]1C(=O)N1CCC[C@H]1C(=O)N1CCC[C@H]1C(=O)N[C@@H](CO)C(N)=O)[C@@H](C)CC)[C@@H](C)CC` [Example 108] (H-Y[Aib]EGT[αMePhe(2-F)]TSDK([AEEA-AEEA-γGlu-C14 diacid])SI[αMeL]LD[Orn]IAQ[Aib]EFI[dE][αMeY]LIEGGK([AEEA-AEEA-γGlu-C14 diacid])SSGAPPPS-NH2; N-terminus assumed) was tested, and the EC50 (hGCGR; [1]) was > 9950 nM, the Emax (hGLP-1R; [2]) was 97.6% and the Emax (hGIPR; [3]) was 85.2%. For the same compound, the EC50 (hGIPR; [4]) was 0.0249 nM.
For `CC[C@H](C)[C@H](NC(=O)[C@H](CCCN)NC(=O)[C@H](CC(=O)O)NC(=O)[C@H](CC(C)C)NC(=O)[C@](C)(CC(C)C)NC(=O)[C@@H](NC(=O)[C@H](CO)NC(=O)[C@H](CCCCNC(=O)COCCOCCNC(=O)COCCOCCNC(=O)CC[C@H](NC(=O)CCCCCCCCCCCCC(=O)O)C(=O)O)NC(=O)[C@H](CC(=O)O)NC(=O)[C@H](CO)NC(=O)[C@@H](NC(=O)[C@](C)(Cc1ccccc1F)NC(=O)[C@@H](NC(=O)CNC(=O)[C@H](CCC(=O)O)NC(=O)C(C)(C)NC(=O)[C@@H](N)Cc1ccc(O)cc1)[C@@H](C)O)[C@@H](C)O)[C@@H](C)CC)C(=O)N[C@@H](C)C(=O)N[C@@H](CCC(N)=O)C(=O)NC(C)(C)C(=O)N[C@@H](CCC(=O)O)C(=O)N[C@@](C)(Cc1ccccc1)C(=O)N[C@H](C(=O)N[C@@H](CCCCNC(=O)COCCOCCNC(=O)COCCOCCNC(=O)CC[C@H](NC(=O)CCCCCCCCCCCCC(=O)O)C(=O)O)C(=O)N[C@@](C)(Cc1ccc(O)cc1)C(=O)N[C@@H](CC(C)C)C(=O)N[C@H](C(=O)N[C@@H](CCC(=O)O)C(=O)NCC(=O)NCC(=O)N1CCC[C@H]1C(=O)N[C@@H](CO)C(=O)N[C@@H](CO)C(=O)NCC(=O)N[C@@H](C)C(=O)N1CCC[C@H]1C(=O)N1CCC[C@H]1C(=O)N1CCC[C@H]1C(=O)N[C@@H](CO)C(N)=O)[C@@H](C)CC)[C@@H](C)CC` [Example 110], the EC50 (hGCGR; hGCGR EC50, nM (SEM, n)) was > 9950 nM, the Emax (hGLP-1R; HEK293, read-out: hGLP-1R Emax, % ± SEM, percent of maximal response to GLP-1(7-36)NH2) was 98.8% and the EC50 (hGLP-1R) was 1.43 nM. The EC50 (hGIPR; hGIPR EC50, nM (SEM, n)) was 0.0417 nM.
In the case of `CC[C@H](C)[C@H](NC(=O)[C@H](CCCN)NC(=O)[C@H](CC(=O)O)NC(=O)[C@H](CC(C)C)NC(=O)[C@](C)(CC(C)C)NC(=O)[C@@H](NC(=O)[C@H](CO)NC(=O)[C@H](CCCCNC(=O)COCCOCCNC(=O)COCCOCCNC(=O)CC[C@H](NC(=O)CCCCCCCCCCCCC(=O)O)C(=O)O)NC(=O)[C@H](CC(=O)O)NC(=O)[C@H](CO)NC(=O)[C@@H](NC(=O)[C@](C)(Cc1ccccc1F)NC(=O)[C@@H](NC(=O)CNC(=O)[C@H](CCC(=O)O)NC(=O)C(C)(C)NC(=O)[C@@H](N)Cc1ccc(O)cc1)[C@@H](C)O)[C@@H](C)O)[C@@H](C)CC)C(=O)N[C@@H](C)C(=O)N[C@@H](CCC(N)=O)C(=O)NC(C)(C)C(=O)N[C@@H](CCC(=O)O)C(=O)N[C@@](C)(Cc1ccccc1)C(=O)N[C@H](C(=O)N[C@H](CCC(=O)O)C(=O)N[C@@](C)(Cc1ccc(O)cc1)C(=O)N[C@@H](CC(C)C)C(=O)N[C@H](C(=O)N[C@@H](CCCCNC(=O)COCCOCCNC(=O)COCCOCCNC(=O)CC[C@H](NC(=O)CCCCCCCCCCCCC(=O)O)C(=O)O)C(=O)NCC(=O)NCC(=O)N1CCC[C@H]1C(=O)N[C@@H](CO)C(=O)N[C@@H](CO)C(=O)NCC(=O)N[C@@H](C)C(=O)N1CCC[C@H]1C(=O)N1CCC[C@H]1C(=O)N1CCC[C@H]1C(=O)N[C@@H](CO)C(N)=O)[C@@H](C)CC)[C@@H](C)CC` [Example 111] (H-Y[Aib]EGT[αMePhe(2-F)]TSDK([AEEA-AEEA-γGlu-C14 diacid])SI[αMeL]LD[Orn]IAQ[Aib]E[αMeF]I[dE][αMeY]LIK([AEEA-AEEA-γGlu-C14 diacid])GGPSSGAPPPS-NH2; N-terminus assumed), the EC50 (hGCGR; [1]) is reported as > 9950 nM, the Emax (hGLP-1R; [2]) is reported as 121% and the Emax (hGIPR; [3]) is reported as 76.1%. For the same compound, the EC50 (hGIPR; [4]) was 0.0202 nM.
`CC[C@H](C)[C@H](NC(=O)[C@H](CC(C)C)NC(=O)[C@](C)(Cc1ccc(O)cc1)NC(=O)[C@H](CCCCNC(=O)COCCOCCNC(=O)COCCOCCNC(=O)CC[C@H](NC(=O)CCCCCCCCCCCCC(=O)O)C(=O)O)NC(=O)[C@@H](NC(=O)[C@H](Cc1ccccc1)NC(=O)[C@H](CCC(=O)O)NC(=O)C(C)(C)NC(=O)[C@H](CCC(N)=O)NC(=O)[C@H](C)NC(=O)[C@H](CCCCNC(=O)COCCOCCNC(=O)COCCOCCNC(=O)CC[C@H](NC(=O)CCCCCCCCCCCCC(=O)O)C(=O)O)NC(=O)[C@H](CCCN)NC(=O)[C@H](CC(=O)O)NC(=O)[C@H](CC(C)C)NC(=O)[C@](C)(CC(C)C)NC(=O)[C@@H](NC(=O)C(C)(C)NC(=O)[C@H](Cc1ccncc1)NC(=O)[C@H](CC(=O)O)NC(=O)[C@H](CO)NC(=O)[C@@H](NC(=O)[C@](C)(Cc1ccccc1F)NC(=O)[C@@H](NC(=O)CNC(=O)[C@H](CCC(=O)O)NC(=O)C(C)(C)NC(=O)[C@@H](N)Cc1ccc(O)cc1)[C@@H](C)O)[C@@H](C)O)[C@@H](C)CC)[C@@H](C)CC)C(=O)N[C@@H](CCC(=O)O)C(=O)NCC(=O)NCC(=O)N1CCC[C@H]1C(=O)N[C@@H](CO)C(=O)N[C@@H](CO)C(=O)NCC(=O)N[C@@H](C)C(=O)N1CCC[C@H]1C(=O)N1CCC[C@H]1C(=O)N1CCC[C@H]1C(=O)N[C@@H](CO)C(N)=O` [Example 113] was tested, and the EC50 (hGCGR; hGCGR EC50, nM (SEM, n)) was > 9950 nM, the EC50 (hGLP-1R) was 0.291 nM and the Emax (hGIPR; HEK293, read-out: hGIPR Emax, % ± SEM, percent of maximal response to GIP(1-42)NH2) was 97.9 ± 3.21%.
